Converted amounts (≈) assume the structure as drawn.
details: buffer; pH 7.4; 200.0 µM

Row | SMILES | solubility kinetic [µg/mL]
1 | CN(C)C(CNC(=O)c1ccc2ccccc2n1)c1ccccc1 (centres undefined) | 27.5 (≈ 86.1 µM)
2 | COc1ccccc1CCC(=O)NCCCn1ccc2ccccc21 | 27.2 (≈ 80.8 µM)
3 | CCOC(=O)Cc1csc(NC(=O)CSc2nccn2C)n1 | > 51.1
4 | O=C(COC(=O)c1cc[n+]([O-])cc1)NCc1ccccc1Cl | > 48.1
5 | CC(=O)NCCc1ccc(C(=O)COC(=O)c2ccco2)cc1 | > 47.3
6 | CCCN1CCC(NC(=O)Cc2ccccc2OC)CC1 | 43.5 (≈ 150 µM)
7 | CCCCc1ccc(NC(=S)N2CCN(C(=O)OCC)CC2)cc1 | 2.2 (≈ 6.29 µM)
8 | OC(CN1CCOCC1)(c1ccccc1)c1ccccn1 (centres undefined) | > 42.7
9 | CCCC(C(=O)Nc1ccc2c(C)cc(=O)oc2c1)c1ccccc1 (centres undefined) | 2.9 (≈ 8.65 µM)
10 | Cc1ccc(Nc2ccccc2N)cc1 | 23.1 (≈ 117 µM)
11 | COc1ccc(C(=O)Nc2ccccc2C(=O)N2CCOCC2)cc1OC | 46.7 (≈ 126 µM)
12 | C/C(=N\O)C(C)(C)Nc1ccc(F)cc1 | > 31.5
13 | COc1ccccc1OCCCn1cc(C(C)=O)c2ccccc21 | 25.8 (≈ 79.8 µM)
14 | CCOC(=O)c1c(/N=C/C2=C(O)CCCC2=O)sc2c1CCCC2 | 3.6 (≈ 10.4 µM)
15 | Cc1cccc(C(=O)OCC(=O)N2CCCCCC2)c1 | > 41.3
16 | Cc1cccc[n+]1CC(=O)c1ccc(Cl)cc1.[Cl-] | 32.9
17 | O=[N+]([O-])c1ccc(N2CCc3ccccc3C2)nc1 | 7.6 (≈ 29.8 µM)
18 | Nc1ccc(-c2nc3cc(N)ccc3n2CCO)cc1 | > 40.2
19 | C=CCOc1c(CNc2ccc3[nH]c(=O)[nH]c3c2)cccc1OC | > 48.8
20 | O=C(COC(=O)c1ccc(Br)cc1)NC1CCCC1 | 5.4 (≈ 16.6 µM)
21 | C=CCNC(=S)N1CCC(C(=O)c2ccc(C)cc2)CC1 | > 45.4
22 | NC(=O)c1cccnc1Oc1ccc(Cl)cc1Cl | 37.1 (≈ 131 µM)
23 | Cc1ccccc1CC(=O)NC1CCN(C)CC1 | > 37
24 | Cc1cccc(C(=O)OCC(=O)NC(C)CCc2ccccc2)c1O (centres undefined) | < 0.7
25 | Clc1nc2c(ccc3ccccc32)[nH]1 | > 30.4

Row | SMILES | solubility kinetic [µg/mL]
26 | Cc1nn(CCCC(=O)Nc2cccnc2Cl)c(C)c1[N+](=O)[O-] | > 50.7
27 | O=S(=O)(NCC1CCCO1)c1ccccc1F (centres undefined) | > 38.9
28 | CCc1cc2cc(C)cc(C)c2[nH]c1=S | 3.9 (≈ 17.9 µM)
29 | COc1ccc(S(=O)(=O)N2CCCCC2)cc1NC(=O)Cn1cnc2c1c(=O)n(C)c(=O)n2C | 28.5 (≈ 58.1 µM)
30 | Cn1ncc([N+](=O)[O-])c1C(=O)Nc1ccccc1C(=O)O | > 43.5
31 | COc1ccc2oc(C(=O)OCC(=O)N3CCCCC3C)c(C)c2c1 (centres undefined) | > 51.8
32 | CC(C)OCCCNC(=O)C1CCN(S(=O)(=O)N2CCCC2)CC1 | > 54.2
33 | Cc1c(/C=C2\NC(=O)NC2=O)c2ccccc2n1C | 36.9 (≈ 145 µM)
34 | COc1cccc2c(=O)c3c([nH]c12)OC(C)(C)C3 | > 36.8
35 | O=C(Nc1cc(Cl)ncn1)c1ccccc1 | 34.2 (≈ 146 µM)
36 | Nc1nc(SCC(=O)Nc2cccc(F)c2)n[nH]1 | > 40.1
37 | COc1ccc(CN2CCC(C)CC2)cc1OCc1ccccc1 | 45.3 (≈ 139 µM)
38 | CC(C)NC(=O)C(=O)c1cn(C)c2ccccc12 | 33.3 (≈ 136 µM)
39 | CNc1nc(Cl)c(SC)c(NCc2cccc(OC)c2)n1 | 1 (≈ 3.08 µM)
40 | Cc1ccc(C)c(SCC(=O)c2ccc[nH]2)c1 | 29.9 (≈ 122 µM)
41 | Cc1ccc(S(=O)(=O)NC2CCCCCC2)cc1 | > 40.1
42 | Cc1cccc(/C=N/NC(=O)c2ccncc2)n1 | > 36
43 | COc1ccc(NC(=O)c2cc3ccc(O)cc3o/c2=N\O)cc1 | < 0.3
44 | CC(C(O)c1ccc(O)cc1)N1CCC(Cc2ccccc2)CC1.O=C(O)C(O)C(O)C(=O)O (centres undefined) | > 71.3
45 | C=CCNC(=O)NC(=O)c1csc([N+](=O)[O-])c1 | 2 (≈ 7.84 µM)
46 | O=C(C[n+]1ccncc1)c1ccccc1.[Br-] | 6.4
47 | CC(NC(=O)CCC(=O)NC(C)c1ccccc1)c1ccccc1 (centres undefined) | 46.2 (≈ 142 µM)
48 | O=C1CN(C(=O)/C=C/c2ccc(Cl)cc2Cl)CCN1 | 44.2 (≈ 148 µM)
49 | CCn1c(=O)c(C(=O)Nc2ccccc2F)c(O)c2ccccc21 | 0.4 (≈ 1.23 µM)
